From ChEMBL document CHEMBL5226338, “Molecular hybrids: A five-year survey on structures of multiple targeted hybrids of protein kinase inhibitors for cancer therapy” (Eur J Med Chem, 2021)
Values belong to the compound of their own block, whether it stands above or below them.

How the values were obtained:
[1] = biological target: MAP kinase-interacting serine/threonine-protein kinase 1 (Homo sapiens) (UniProt Q9BUB5); assay: Inhibition of MNK1 (unknown origin) at 1 uM incubated for 60 mins by HTRF assay relative to control
Chain of MAP kinase-interacting serine/threonine-protein kinase 1 (Homo sapiens) (Q9BUB5 whole entry, looked up): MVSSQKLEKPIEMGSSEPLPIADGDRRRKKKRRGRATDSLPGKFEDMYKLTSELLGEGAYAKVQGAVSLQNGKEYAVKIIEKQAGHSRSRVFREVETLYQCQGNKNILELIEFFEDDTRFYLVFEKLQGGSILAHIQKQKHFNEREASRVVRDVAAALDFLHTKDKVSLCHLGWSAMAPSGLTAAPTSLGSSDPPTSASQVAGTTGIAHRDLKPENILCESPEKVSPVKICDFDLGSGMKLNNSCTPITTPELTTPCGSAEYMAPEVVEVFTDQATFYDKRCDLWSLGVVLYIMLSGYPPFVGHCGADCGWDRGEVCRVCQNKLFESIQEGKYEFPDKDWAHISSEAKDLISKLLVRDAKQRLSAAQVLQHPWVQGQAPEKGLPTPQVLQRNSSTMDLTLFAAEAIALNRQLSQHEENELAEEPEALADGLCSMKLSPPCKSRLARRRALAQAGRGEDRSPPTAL

Histone deacetylase = assay: Inhibition of HDAC in human HeLa cell nuclear extract using Boc-Lys (acetyl)-AMC as substrate preincubated for 15 mins followed by substrate addition and measured after 60 mins by fluorescence based analysis; format: subcellular, Nucleus
[2] = biological target: MAP kinase-interacting serine/threonine-protein kinase 2 (Homo sapiens) (UniProt Q9HBH9); assay: Inhibition of MNK2 (unknown origin) at 1 uM incubated for 60 mins by HTRF assay relative to control
Chain of MAP kinase-interacting serine/threonine-protein kinase 2 (Homo sapiens) (Q9HBH9 whole entry, looked up): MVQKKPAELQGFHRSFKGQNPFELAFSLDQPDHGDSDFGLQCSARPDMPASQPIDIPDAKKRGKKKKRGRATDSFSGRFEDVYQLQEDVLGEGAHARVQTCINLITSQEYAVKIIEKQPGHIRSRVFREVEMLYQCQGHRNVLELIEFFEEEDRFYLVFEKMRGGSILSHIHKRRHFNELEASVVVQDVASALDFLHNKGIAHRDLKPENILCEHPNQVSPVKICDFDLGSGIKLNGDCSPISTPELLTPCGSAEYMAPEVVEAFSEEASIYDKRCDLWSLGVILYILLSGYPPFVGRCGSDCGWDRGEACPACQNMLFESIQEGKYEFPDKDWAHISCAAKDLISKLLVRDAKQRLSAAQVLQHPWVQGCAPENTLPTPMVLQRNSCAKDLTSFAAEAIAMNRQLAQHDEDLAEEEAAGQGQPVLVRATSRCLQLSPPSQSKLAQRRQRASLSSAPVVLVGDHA

[3] = biological target: T1, Epidermal growth factor receptor (Homo sapiens, UniProt P00533); assay: Inhibition of EGFR (unknown origin)
T1 sequence (P00533 whole entry): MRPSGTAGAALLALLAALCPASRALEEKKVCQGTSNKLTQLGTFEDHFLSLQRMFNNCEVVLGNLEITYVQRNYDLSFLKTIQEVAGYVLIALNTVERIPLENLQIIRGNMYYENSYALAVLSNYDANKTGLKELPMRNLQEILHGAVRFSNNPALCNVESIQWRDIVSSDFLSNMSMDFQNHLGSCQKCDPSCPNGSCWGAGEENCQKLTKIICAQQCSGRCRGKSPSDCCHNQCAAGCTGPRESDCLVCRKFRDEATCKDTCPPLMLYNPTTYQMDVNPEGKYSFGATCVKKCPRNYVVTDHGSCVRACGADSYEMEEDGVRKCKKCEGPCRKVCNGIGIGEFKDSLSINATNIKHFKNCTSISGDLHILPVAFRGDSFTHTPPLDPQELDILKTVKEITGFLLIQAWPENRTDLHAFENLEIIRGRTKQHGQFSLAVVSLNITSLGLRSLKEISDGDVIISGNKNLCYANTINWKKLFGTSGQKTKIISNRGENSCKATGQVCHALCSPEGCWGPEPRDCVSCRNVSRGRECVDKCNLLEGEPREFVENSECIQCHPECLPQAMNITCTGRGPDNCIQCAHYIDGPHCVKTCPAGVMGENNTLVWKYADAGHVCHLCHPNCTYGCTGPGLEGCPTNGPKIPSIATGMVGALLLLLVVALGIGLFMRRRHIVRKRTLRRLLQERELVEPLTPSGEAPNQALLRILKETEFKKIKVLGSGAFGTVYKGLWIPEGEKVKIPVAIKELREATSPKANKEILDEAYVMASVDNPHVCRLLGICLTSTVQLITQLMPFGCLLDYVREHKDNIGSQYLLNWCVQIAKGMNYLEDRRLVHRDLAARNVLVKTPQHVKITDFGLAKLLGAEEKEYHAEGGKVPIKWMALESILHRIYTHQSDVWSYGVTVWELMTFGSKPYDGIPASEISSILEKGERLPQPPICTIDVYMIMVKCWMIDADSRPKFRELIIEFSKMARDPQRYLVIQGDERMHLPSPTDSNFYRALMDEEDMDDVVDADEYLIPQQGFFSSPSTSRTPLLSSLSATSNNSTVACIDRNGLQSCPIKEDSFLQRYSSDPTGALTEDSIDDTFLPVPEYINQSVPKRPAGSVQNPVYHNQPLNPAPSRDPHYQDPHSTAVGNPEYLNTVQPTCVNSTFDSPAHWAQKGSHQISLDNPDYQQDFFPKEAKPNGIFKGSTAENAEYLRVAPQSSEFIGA

MCF7 = assay: Cytotoxicity against human MCF7 cells assessed as inhibition of cell growth incubated for 24 hrs by MTT assay; format: functional, cell-based; details: MCF7, 24 h
[4] = biological target: T1, Epidermal growth factor receptor; assay: Inhibition of GST-fused EGFR (unknown origin) in presence of ATP by microplate reader analysis
Tubulin [5] = assay: Inhibition of MAP-rich tubulin (unknown origin) polymerization; format: protein-complex assay, Homo sapiens
MDA-MB-231 = assay: Cytotoxicity against human MDA-MB-231 cells assessed as inhibition of cell growth incubated for 24 hrs by MTT assay; format: functional, cell-based; details: MDA-MB-231, 24 h
Tubulin beta = assay: Inhibition of beta-tubulin polymerization in human HCT-116 cells using TMB substrate by ELISA; format: cell-based
Janus Kinase (JAK) = Janus Kinase (JAK) (Homo sapiens, UniProt P52333+P23458+O60674+P29597); assay: Inhibition of JAK (unknown origin); format: protein assay
HepG2 = assay: Cytotoxicity against human HepG2 cells assessed as inhibition of cell growth incubated for 24 hrs by MTT assay; format: functional, cell-based; details: HepG2, 24 h
Tubulin [6] = assay: Inhibition of tubulin (unknown origin) polymerization; format: protein-complex assay, Homo sapiens
[7] = biological target: Serine/threonine-protein kinase B-raf (Homo sapiens, UniProt P15056, V600E); assay: Inhibition of full length human BRAF V600E mutant using His-tagged full length human MEK1 (K97R) as substrate incubated for 20 mins by [gamma-33P]ATP based filter-binding method
Chain of Serine/threonine-protein kinase B-raf (P15056 2-766 V600E limits assumed): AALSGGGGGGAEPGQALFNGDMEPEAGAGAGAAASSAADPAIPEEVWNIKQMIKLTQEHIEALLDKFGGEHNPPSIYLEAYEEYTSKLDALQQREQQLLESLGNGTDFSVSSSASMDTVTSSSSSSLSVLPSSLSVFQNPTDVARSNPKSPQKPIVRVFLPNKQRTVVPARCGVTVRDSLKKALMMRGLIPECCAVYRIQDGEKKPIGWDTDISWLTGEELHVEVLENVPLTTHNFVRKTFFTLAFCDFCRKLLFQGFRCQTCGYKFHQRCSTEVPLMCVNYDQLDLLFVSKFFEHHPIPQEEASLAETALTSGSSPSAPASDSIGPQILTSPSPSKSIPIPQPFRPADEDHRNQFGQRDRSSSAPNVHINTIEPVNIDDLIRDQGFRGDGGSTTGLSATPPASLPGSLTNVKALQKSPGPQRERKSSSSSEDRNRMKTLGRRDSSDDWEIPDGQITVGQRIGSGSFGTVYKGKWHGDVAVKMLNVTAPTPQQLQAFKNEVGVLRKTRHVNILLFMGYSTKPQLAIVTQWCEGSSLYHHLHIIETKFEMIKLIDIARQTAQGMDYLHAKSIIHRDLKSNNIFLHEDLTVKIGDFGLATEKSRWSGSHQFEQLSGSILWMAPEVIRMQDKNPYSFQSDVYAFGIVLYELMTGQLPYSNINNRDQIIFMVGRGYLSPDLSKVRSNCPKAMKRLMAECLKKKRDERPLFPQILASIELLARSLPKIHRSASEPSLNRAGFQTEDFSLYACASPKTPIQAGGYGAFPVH

Histone deacetylase 1 [8] = biological target: T2, Histone deacetylase 1 (Homo sapiens, UniProt Q13547); assay: Inhibition of recombinant HDAC1 (unknown origin) using Fluor-de-Lys as substrate incubated for 10 mins by fluorescence based analysis
T2 sequence (Q13547 whole entry): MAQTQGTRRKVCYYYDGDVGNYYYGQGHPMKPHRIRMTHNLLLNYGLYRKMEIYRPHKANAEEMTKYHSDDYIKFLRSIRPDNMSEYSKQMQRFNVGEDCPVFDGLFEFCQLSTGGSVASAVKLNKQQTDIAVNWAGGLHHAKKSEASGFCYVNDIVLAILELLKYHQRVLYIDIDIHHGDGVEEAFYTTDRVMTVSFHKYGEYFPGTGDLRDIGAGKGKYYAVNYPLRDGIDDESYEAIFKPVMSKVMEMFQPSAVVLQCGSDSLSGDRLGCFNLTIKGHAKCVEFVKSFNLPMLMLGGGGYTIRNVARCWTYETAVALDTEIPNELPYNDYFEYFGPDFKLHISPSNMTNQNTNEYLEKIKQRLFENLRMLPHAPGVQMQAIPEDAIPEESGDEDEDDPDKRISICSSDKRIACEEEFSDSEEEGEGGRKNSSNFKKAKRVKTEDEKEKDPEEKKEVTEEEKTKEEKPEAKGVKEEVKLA

[9] = Cytotoxicity against human U87 cells; format: functional, cell-based, U-87MG ATCC; details: U-87 MG
[10] = biological target: Vascular endothelial growth factor receptor 2 (Homo sapiens, UniProt P35968); assay: Inhibition of human VEGFR2 using TMB as substrate by ELISA
[11] = biological target: Tubulin beta (Homo sapiens) (UniProt P68371+Q9H4B7+Q13509+P04350+Q3ZCM7+P07437+Q13885+Q9BVA1+Q9BUF5+A6NNZ2); assay: Inhibition of beta-tubulin polymerization in human HepG2 cells using TMB substrate by spectrophotometry analysis relative to control; format: cell-based; details: concentration not given here
[12] = biological target: T3, Protein deacetylase HDAC6 (Homo sapiens, UniProt Q9UBN7); assay: Inhibition of HDAC6 (unknown origin)
T3 sequence (Q9UBN7 whole entry): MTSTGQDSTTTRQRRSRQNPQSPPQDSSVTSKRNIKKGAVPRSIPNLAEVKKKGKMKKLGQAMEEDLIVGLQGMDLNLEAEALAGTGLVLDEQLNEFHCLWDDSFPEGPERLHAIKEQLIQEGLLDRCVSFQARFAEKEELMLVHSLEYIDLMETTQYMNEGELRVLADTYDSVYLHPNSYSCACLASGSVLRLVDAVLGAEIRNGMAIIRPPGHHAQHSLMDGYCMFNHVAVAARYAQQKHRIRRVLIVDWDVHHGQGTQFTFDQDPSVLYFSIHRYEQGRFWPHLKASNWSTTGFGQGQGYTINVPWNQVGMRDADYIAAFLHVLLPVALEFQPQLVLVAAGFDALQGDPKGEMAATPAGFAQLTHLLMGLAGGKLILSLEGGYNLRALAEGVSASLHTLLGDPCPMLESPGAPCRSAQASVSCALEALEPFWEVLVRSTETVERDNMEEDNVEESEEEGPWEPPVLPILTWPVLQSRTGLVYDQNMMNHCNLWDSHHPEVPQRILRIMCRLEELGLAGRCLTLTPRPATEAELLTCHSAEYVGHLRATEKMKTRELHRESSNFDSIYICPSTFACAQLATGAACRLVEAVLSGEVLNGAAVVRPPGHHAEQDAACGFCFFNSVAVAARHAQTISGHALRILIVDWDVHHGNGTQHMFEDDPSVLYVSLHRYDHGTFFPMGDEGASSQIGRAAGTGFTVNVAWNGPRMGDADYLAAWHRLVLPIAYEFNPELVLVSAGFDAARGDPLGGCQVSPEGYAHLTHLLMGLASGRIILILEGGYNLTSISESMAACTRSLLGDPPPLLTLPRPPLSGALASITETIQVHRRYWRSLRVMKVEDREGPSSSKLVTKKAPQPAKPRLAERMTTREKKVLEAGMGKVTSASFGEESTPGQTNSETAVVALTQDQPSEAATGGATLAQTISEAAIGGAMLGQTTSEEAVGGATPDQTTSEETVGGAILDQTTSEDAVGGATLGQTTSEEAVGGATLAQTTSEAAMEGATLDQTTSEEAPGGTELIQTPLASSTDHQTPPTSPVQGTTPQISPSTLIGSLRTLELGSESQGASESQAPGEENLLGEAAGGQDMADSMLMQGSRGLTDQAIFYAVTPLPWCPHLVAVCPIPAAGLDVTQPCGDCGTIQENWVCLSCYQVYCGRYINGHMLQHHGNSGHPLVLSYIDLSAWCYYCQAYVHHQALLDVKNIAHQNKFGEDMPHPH

[13] = biological target: Tyrosine-protein kinase JAK2 (Homo sapiens, UniProt O60674); assay: Inhibition of JAK2 (unknown origin)
Chain of Tyrosine-protein kinase JAK2 (O60674 whole entry): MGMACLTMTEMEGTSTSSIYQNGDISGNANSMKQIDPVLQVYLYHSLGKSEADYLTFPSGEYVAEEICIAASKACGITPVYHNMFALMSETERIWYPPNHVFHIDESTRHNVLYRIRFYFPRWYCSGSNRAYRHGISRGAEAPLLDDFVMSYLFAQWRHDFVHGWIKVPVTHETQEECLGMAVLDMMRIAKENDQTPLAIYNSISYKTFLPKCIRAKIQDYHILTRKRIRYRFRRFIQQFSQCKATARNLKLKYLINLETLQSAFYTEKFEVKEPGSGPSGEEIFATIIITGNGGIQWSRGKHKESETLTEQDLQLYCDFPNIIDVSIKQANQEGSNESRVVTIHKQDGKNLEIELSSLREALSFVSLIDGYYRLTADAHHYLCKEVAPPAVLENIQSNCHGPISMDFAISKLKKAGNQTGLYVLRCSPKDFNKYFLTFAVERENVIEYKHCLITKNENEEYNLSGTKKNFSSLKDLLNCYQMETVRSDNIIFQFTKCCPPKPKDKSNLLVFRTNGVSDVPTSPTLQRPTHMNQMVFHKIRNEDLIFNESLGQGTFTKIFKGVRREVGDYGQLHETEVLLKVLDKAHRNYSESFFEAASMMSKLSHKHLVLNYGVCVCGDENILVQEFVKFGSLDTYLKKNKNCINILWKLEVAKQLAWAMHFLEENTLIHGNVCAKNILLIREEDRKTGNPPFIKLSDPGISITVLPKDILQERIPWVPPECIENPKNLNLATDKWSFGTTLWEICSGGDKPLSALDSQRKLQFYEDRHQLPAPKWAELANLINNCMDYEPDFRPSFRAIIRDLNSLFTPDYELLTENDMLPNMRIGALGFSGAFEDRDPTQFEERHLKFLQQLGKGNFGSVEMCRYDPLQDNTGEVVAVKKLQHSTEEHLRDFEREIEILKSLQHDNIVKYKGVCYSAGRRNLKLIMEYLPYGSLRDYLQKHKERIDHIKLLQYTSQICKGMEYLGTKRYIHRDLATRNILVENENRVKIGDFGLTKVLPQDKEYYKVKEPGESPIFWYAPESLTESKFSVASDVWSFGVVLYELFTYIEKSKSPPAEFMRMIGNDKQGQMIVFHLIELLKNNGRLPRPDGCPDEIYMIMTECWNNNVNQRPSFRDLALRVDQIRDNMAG

Histone deacetylase 1 [14] = biological target: T2, Histone deacetylase 1; assay: Inhibition of HDAC1 (unknown origin)
NCI-H1975 = assay: Cytotoxicity against human NCI-H1975 cells; format: functional, cell-based
A-431 = assay: Cytotoxicity against human A-431 cells; format: functional, cell-based
[15] = Inhibition of sheep brain tubulin polymerization by DAPI staining based fluorescence analysis; format: tissue-based, Ovis aries
[16] = biological target: [Pyruvate dehydrogenase (acetyl-transferring)] kinase isozyme 1, mitochondrial (Homo sapiens, UniProt Q15118); assay: Inhibition of human recombinant PDHK1 using KKKYHGHSMSDPGVSYRT as substrate incubated for 40 mins in presence of Mg/ATP mix by [gamma-32P]-ATP based scintillation counting analysis
Chain of [Pyruvate dehydrogenase (acetyl-transferring)] kinase isozyme 1, mitochondrial (Q15118 whole entry): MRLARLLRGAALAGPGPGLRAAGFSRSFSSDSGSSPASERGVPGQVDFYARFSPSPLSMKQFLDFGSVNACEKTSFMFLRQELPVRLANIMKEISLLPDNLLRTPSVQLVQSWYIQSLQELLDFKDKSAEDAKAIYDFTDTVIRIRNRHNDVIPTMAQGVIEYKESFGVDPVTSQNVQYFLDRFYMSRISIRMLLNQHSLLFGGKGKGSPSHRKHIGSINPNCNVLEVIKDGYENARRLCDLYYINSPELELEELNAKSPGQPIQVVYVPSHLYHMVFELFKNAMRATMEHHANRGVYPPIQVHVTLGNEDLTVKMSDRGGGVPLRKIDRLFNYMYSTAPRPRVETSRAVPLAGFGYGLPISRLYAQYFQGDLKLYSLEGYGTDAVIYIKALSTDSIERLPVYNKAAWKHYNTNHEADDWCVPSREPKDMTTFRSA

inhibition [1]: 54% | IC50 (Histone deacetylase): 0.78 µM | inhibition [2]: 70%
SMILES: O=C(CCCCCCNc1ccc2ncnc(Nc3ccc(F)cc3)c2n1)NO

IC50 [3]: 0.01 µM
SMILES: CC(=O)O[C@H]1CC[C@]2(C)[C@H]3CC=C4[C@@H]5CC(C)(C)CC[C@]5(C(=O)OCCCC[N+](=O)[O-])CC[C@@]4(C)[C@]3(C)CC[C@H]2C1(C)CO (some centres not stated)

IC50 [4]: 0.0752 µM | IC50 (Tubulin [5]): 9.25 µM
SMILES: Fc1ccc(C2=Nc3ccc(F)cc3CN2/N=C\c2ccccc2)cc1
IC50 (MCF7): 0.35 µM | IC50 (MDA-MB-231): 0.28 µM

IC50 (Tubulin beta): 8.4 µM | IC50 [4]: 0.093 µM
SMILES: CCc1nnc2c(Nc3ccc(C(=O)/C=C/c4cc(OC)c(OC)c(OC)c4)cc3)nc3ccccc3n12

IC50 (Janus Kinase (JAK)): 0.004 µM
SMILES: O=C(CCCCCCn1cc(Nc2ncc(Cl)c(Nc3ccc(Cl)cc3)n2)cn1)NO

IC50 (Tubulin [6]): 0.107 µM | IC50 [4]: 0.867 µM
SMILES: CCCOCCSc1nc(-c2ccccc2Cl)nn1CCOCCC
IC50 (HepG2): 1.3 µM

IC50 [7]: 1.7 µM | IC50 (Histone deacetylase 1 [8]): 0.635 µM
SMILES: COc1ccc(NC(=O)Nc2ccc(Oc3ccc(C(=O)c4ncc[nH]4)cc3)cc2)cc1

SMILES: C=C[C@]1(C)CC[C@@H](C(=C)COC(=O)CCC(=O)CCCOc2no[n+]([O-])c2S(=O)(=O)c2ccccc2)C[C@H]1C(=C)C
IC50 [9]: 0.002 µM

IC50 [10]: 0.59 µM | inhibition [11]: 73%
SMILES: COc1ccc(NC(=O)c2c(Nc3ccccc3)sc(C#N)c2NC(=O)CNc2ccc(Cl)cc2)cc1

IC50 [3]: 3 µM
SMILES: CSc1nn(-c2ccc(Br)cc2)c2nc(C)nc(Nc3ccc(OCCCC[N+](=O)[O-])cc3)c12

IC50 [12]: 0.046 µM | IC50 [13]: 0.008 µM
SMILES: CS(=O)(=O)Nc1ccc(-c2ccnc(Nc3ccc(N4CCC(CCc5ccc(/C=C/CC(=O)NO)cc5)CC4)cc3)n2)cc1

IC50 [12]: 0.0043 µM | IC50 (Histone deacetylase 1 [14]): 0.0011 µM | IC50 [3]: 0.0103 µM
SMILES: O=C(CCCCCn1cc(-c2ccc3ncnc(Nc4ccc(Br)cc4F)c3c2)nn1)NO
IC50 (NCI-H1975): 0.91 µM | IC50 (A-431): 0.26 µM

IC50 [12]: 0.02 µM | IC50 (Histone deacetylase 1 [14]): 0.306 µM | IC50 [13]: 0.0026 µM
SMILES: CC(=O)Nc1ccc(-c2ccnc(NCc3ccc(OCCCCCC(=O)NO)cc3)n2)cc1

IC50 [15]: 0.26 µM | IC50 [16]: 12 µM
SMILES: COc1ccc(C(=O)c2cc(OC)c(OC)c(OC)c2)cc1OC(=O)C(Cl)Cl
